Measured values taken from patent publication US11452707B2, “Use of cannabidiol in preparation of drugs for resisting against influenza” (priority 2017, dated 2022).
Like-named read-outs stand apart in the source and are kept apart here.

What was measured:
H1N1 = tested on: H1N1; parameters: species or system influenza A virus H1N1; settings: in vivo
[1] = tested on: H5N1 A/great black-headed gull/Qinghai/2009 (H5N1); parameters: species or system influenza A virus H5N1; settings: in vivo, 20 mg/kg/day
H1N1 WSN (A/WSN/33) [2] = tested on: H1N1 WSN (A/WSN/33); parameters: species or system influenza A virus H1N1; settings: in vivo; for activities of the infected mice / body temperature drop / body weight drop / discomfort caused by influenza / mice died / mice in group / mortality of mice caused by H1N1 WSN infection: ip, 20 mg/kg/day
H1N1 WSN [3] = type: cell-based, influenza A virus H1N1; settings: 24 h
H1N1 WSN (A/WSN/33) [4] = test: H1N1 WSN-infected mice: pulmonary vascular permeability test (Evans Blue); type: in vivo, influenza A virus H1N1; settings: DPI 8; 20 mg/kg/d i.p. from Day 4; vs high toxicity group; Tamiflu P<0.05, CBD P<0.01
[5] = oral and systemic use; cited from earlier work
H1N1 WSN (A/WSN/33) [6] = test: H1N1 WSN-infected mice: lung index; type: in vivo, influenza A virus H1N1; settings: DPI 8; for lung injury index of mice caused by H1N1 WSN infection: 20 mg/kg/d i.p. from Day 4, vs high toxicity group, P<0.05
H5N1 [7] = tested on: H5N1; parameters: species or system influenza A virus H5N1; settings: in vivo
H1N1 WSN (A/WSN/33) [8] = test: H1N1 WSN-infected mice: inflammatory cells in alveolar lavage fluid (Diff-Quick staining); type: in vivo, influenza A virus H1N1; settings: DPI 8, 20 mg/kg/d; for number of macrophages in the alveolar lavage fluid: Tamiflu P<0.01, CBD P<0.001
H5N1 [9] = type: cell-based, influenza A virus H5N1; settings: 1 μM; 24 h
H1N1 WSN (A/WSN/33) [10] = test: H1N1 WSN-infected mice: pathological section of lung tissue (HE); type: in vivo, influenza A virus H1N1; settings: DPI 8; 20 mg/kg/d i.p. from Day 4
[11] = mouse, in vivo; cited from earlier work
IAV = tested on: IAV; parameters: species or system Influenza A Virus; settings: in vivo
H1N1 WSN [12] = type: cell-based, influenza A virus H1N1; settings: 24 h; remark: listed apart in the source
[13] = of the 119 deaths; cited from earlier work

C=C(C)[C@@H]1CCC(C)=C[C@H]1c1c(O)cc(CCCCC)cc1O [CBD, Cannabidiol]
mortality in mice caused by IAV infection (H1N1): inhibited the same mortality | activities of the infected mice [1]: significantly increased | discomfort caused by influenza [1]: significantly alleviated | mortality (mice died / mice in group) [1]: 10/10 | mortality compared with the influenza group [1]: no significant difference | survival time of mice after H5N1 infection prolonged by [1]: 24 h | body temperature drop ([1]; ip): significantly inhibited | body weight drop caused by H5N1 ([1]; ip): Significantly Inhibited | mortality, CBD group compared with Tamiflu group (H1N1 WSN (A/WSN/33) [2]): no significant difference | activities of the infected mice (H1N1 WSN (A/WSN/33) [2]): significantly increased | body temperature drop (H1N1 WSN (A/WSN/33) [2]): significantly inhibited | body weight drop (H1N1 WSN (A/WSN/33) [2]): significantly inhibited | discomfort caused by influenza (H1N1 WSN (A/WSN/33) [2]): significantly alleviated | mice died / mice in group (H1N1 WSN (A/WSN/33) [2]): 10/20 | mortality of mice caused by H1N1 WSN infection (H1N1 WSN (A/WSN/33) [2]): significantly reduced | expression of PA gene in H1N1 WSN (H1N1 WSN [3]; 5 μM): significantly reduced | expression of PB1 gene in H1N1 WSN (H1N1 WSN [3]; 5 μM): significantly reduced | mouse pulmonary capillary permeability caused by H1N1 WSN infection (H1N1 WSN (A/WSN/33) [4]): significantly reduced | severity of joint damage and the acute and chronic courses of arthritis [5]: significantly reduce | lung injury index of mice caused by H1N1 WSN infection (H1N1 WSN (A/WSN/33) [6]): significantly reduced | lung index, CBD group compared with Tamiflu group (H1N1 WSN (A/WSN/33) [6]; both 20 mg/kg/d): no significant difference | mortality in mice caused by IAV infection (H5N1 [7]): inhibited the same mortality | number of neutrophils in the alveolar lavage fluid, compared with the Tamiflu group (H1N1 WSN (A/WSN/33) [8]): very significant reduction | number of macrophages in the alveolar lavage fluid, compared with the Tamiflu group (H1N1 WSN (A/WSN/33) [8]; P<0.05): significant reduction | number of macrophages in the alveolar lavage fluid (H1N1 WSN (A/WSN/33) [8]): significantly reduced | number of lymphocytes in the alveolar lavage fluid (H1N1 WSN (A/WSN/33) [8]; vs IAV treatment group, P<0.01): significantly reduced | number of neutrophils in the alveolar lavage fluid (H1N1 WSN (A/WSN/33) [8]; vs high toxicity treatment group, P<0.001): significantly reduced | expression of NP gene in H5N1 (H5N1 [9]): significantly reduced | expression of PA gene in H5N1 (H5N1 [9]): significantly reduced | expression of PB1 gene in H5N1 (H5N1 [9]): significantly reduced | expression of PB2 gene in H5N1 (H5N1 [9]): significantly reduced | inflammatory cell infiltration (lung pathology) (H1N1 WSN (A/WSN/33) [10]): significantly reduced | LPS-induced acute lung injury [11]: inhibits | mortality of mice caused by IAV infection (IAV; 20 mg/kg/day): significantly inhibited | mortality of mice caused by IAV infection (IAV; 60 mg/kg/day): significantly inhibited | expression of NP gene in H1N1 WSN (H1N1 WSN [12]; 5 μM): significantly reduced | expression of PA gene in H1N1 WSN (H1N1 WSN [12]; 5 μM): significantly reduced | expression of PB1 gene in H1N1 WSN (H1N1 WSN [12]; 5 μM): significantly reduced | expression of PB2 gene in H1N1 WSN (H1N1 WSN [12]; 5 μM): significantly reduced

CCOC(=O)C1=C[C@@H](OC(CC)CC)[C@H](NC(C)=O)[C@@H](N)C1 [Tamiflu, oseltamivir, reference compound]
deaths who took Tamiflu that experienced severe illness or death within 12 hours after taking the drug [13]: 38 | activities of the infected mice (H1N1 WSN (A/WSN/33) [2]): significantly increased | body temperature drop (H1N1 WSN (A/WSN/33) [2]): significantly inhibited | body weight drop (H1N1 WSN (A/WSN/33) [2]): significantly inhibited | discomfort caused by influenza (H1N1 WSN (A/WSN/33) [2]): significantly alleviated | mice died / mice in group (H1N1 WSN (A/WSN/33) [2]): 9/20 | mortality of mice caused by H1N1 WSN infection (H1N1 WSN (A/WSN/33) [2]): significantly reduced | expression of PA gene in H1N1 WSN (H1N1 WSN [3]; 10 μM): no significant inhibitory effect | expression of PB1 gene in H1N1 WSN (H1N1 WSN [3]; 10 μM): no significant inhibitory effect | mouse pulmonary capillary permeability caused by H1N1 WSN infection (H1N1 WSN (A/WSN/33) [4]): significantly reduced | lung injury index of mice caused by H1N1 WSN infection (H1N1 WSN (A/WSN/33) [6]): significantly reduced | number of macrophages in the alveolar lavage fluid (H1N1 WSN (A/WSN/33) [8]): significantly reduced | expression of NP gene in H5N1 (H5N1 [9]): significantly reduced | expression of PA gene in H5N1 (H5N1 [9]): significantly reduced | expression of PB1 gene in H5N1 (H5N1 [9]): significantly reduced | expression of PB2 gene in H5N1 (H5N1 [9]): significantly reduced | inflammatory cell infiltration (lung pathology) (H1N1 WSN (A/WSN/33) [10]): significantly reduced | mortality of mice caused by IAV infection (IAV; 20 mg/kg/day): significantly inhibited | expression of NP gene in H1N1 WSN (H1N1 WSN [12]; 10 μM): no significant inhibitory effect | expression of PA gene in H1N1 WSN (H1N1 WSN [12]; 10 μM): no significant inhibitory effect | expression of PB1 gene in H1N1 WSN (H1N1 WSN [12]; 10 μM): no significant inhibitory effect | expression of PB2 gene in H1N1 WSN (H1N1 WSN [12]; 10 μM): no significant inhibitory effect
